Results: ChEMBL document CHEMBL4359841, “Late-Stage Functionalization of Platensimycin Leading to Multiple Analogues with Improved Antibacterial Activity in Vitro and in Vivo” (2019)
≈ marks a conversion by molar mass, not a printed value. Calls of active or inactive are those of the source.

Columns and labels:
[1] = test system: Staphylococcus aureus; experiment: Inhibition of FabB/FabF in methicillin-resistant Staphylococcus aureus assessed as antibacterial activity at 5 ug/disk after 18 hrs by agar disk diffusion method
[2] = test system: Staphylococcus aureus; experiment: Inhibition of FabB/FabF in Staphylococcus aureus ATCC 29213 assessed as antibacterial activity after 16 hrs by agar dilution method
[3] = test system: Staphylococcus aureus; experiment: Inhibition of FabB/FabF in methicillin-sensitive Staphylococcus aureus assessed as antibacterial activity after 16 hrs by agar dilution method
[4] = test system: Staphylococcus aureus; experiment: Inhibition of FabB/FabF in methicillin-resistant Staphylococcus aureus assessed as antibacterial activity after 16 hrs by agar dilution method
[5] = test system: Staphylococcus aureus; experiment: Antibacterial activity against methicillin-resistant Staphylococcus aureus infected in C57BL/6J mouse model of peritonitis assessed as mouse survival at 10 mg/kg, ip dosed at 1 hr and 5 hrs post infection and measured for 7 days relative to control; format: functional
[6] = test system: Staphylococcus aureus; experiment: Antibacterial activity against methicillin-resistant Staphylococcus aureus infected in C57BL/6J mouse model of peritonitis assessed as mouse survival at 20 mg/kg, ip dosed at 1 hr and 5 hrs post infection and measured for 7 days relative to control; format: functional
[7] = test system: Staphylococcus aureus; experiment: Antibacterial activity against methicillin-resistant Staphylococcus aureus infected in BALB/c mouse model of skin infection assessed as bacterial load in skin lesions at 2 mg administered topically as ointment twice daily for 7 days and measured at 24 hrs post last dose (7.9 +/- 0.9 x 10^8 CFU/g); format: functional
[8] = test system: Staphylococcus aureus; experiment: Antibacterial activity against methicillin-resistant Staphylococcus aureus infected in BALB/c mouse model of skin wound assessed as reduction in appearance of secondary scald at 2 mg administered topically as ointment twice daily for 7 days and measured after 24 hrs by visual inspection method; format: functional, organism-based
[9] = test system: Staphylococcus aureus; experiment: Antibacterial activity against methicillin-resistant Staphylococcus aureus infected in BALB/c mouse model of skin wound assessed as reduction in detachment of epidermis from dermis at 2 mg administered topically as ointment twice daily for 7 days and measured after 24 hrs by visual inspection method; format: functional, organism-based
[10] = test system: Staphylococcus aureus; experiment: Antibacterial activity against methicillin-resistant Staphylococcus aureus infected in BALB/c mouse model of skin wound assessed as retainment of dermis layers at 2 mg administered topically as ointment twice daily for 7 days and measured and after 24 hrs by HE staining analysis; format: functional, organism-based
[11] = test system: Staphylococcus aureus; experiment: Antibacterial activity against methicillin-resistant Staphylococcus aureus infected in BALB/c mouse model of skin wound assessed as retainment of fat layers at 2 mg administered topically as ointment twice daily for 7 days and measured after 24 hrs by HE staining analysis; format: functional, organism-based
[12] = test system: Staphylococcus aureus; experiment: Inhibition of FabB/FabF in methicillin-resistant Staphylococcus aureus assessed as antibacterial activity at 2 ug/disk after 18 hrs by agar disk diffusion method

Row | SMILES | antibacterial activity (disk diffusion, qualitative) [1] | MIC [2] [µg/mL] | MIC [3] [µg/mL] | MIC [4] [µg/mL] | further results
1 | CC(=O)NC[C@H]1CN(c2ccc(N3CCOCC3)c(F)c2)C(=O)O1 | Active | 1 (≈ 2.96 µM) | 1 (≈ 2.96 µM) | 1 (≈ 2.96 µM) | –
2 | C[C@]12C[C@@]34C=C(SCc5ccccc5)C(=O)[C@@](C)(CCC(=O)Nc5c(O)ccc(C(=O)O)c5O)[C@@H]3[C@H](C[C@@H]1C4)O2 | Active | 0.5 (≈ 0.887 µM) | 0.5 (≈ 0.887 µM) | 0.5 (≈ 0.887 µM) | survival at 10 mg/kg [5]: > 60%; survival at 20 mg/kg [6]: 80%
3 | C[C@]12C[C@@]34C=C(Sc5cccc(I)c5)C(=O)[C@@](C)(CCC(=O)Nc5c(O)ccc(C(=O)O)c5O)[C@@H]3[C@H](C[C@@H]1C4)O2 | Active | 1 (≈ 1.48 µM) | 0.5 (≈ 0.74 µM) | 0.5 (≈ 0.74 µM) | –
4 | C/C(=C\C(=O)OCCCCCCCCC(=O)O)C[C@@H]1OC[C@H](C[C@@H]2O[C@H]2[C@@H](C)[C@H](C)O)[C@@H](O)[C@H]1O [MUPIROCIN] | – | – | – | – | Activity [7]: 6.5 ×10⁶ CFU/g; Activity [8]: Active; Activity [9]: Active; Activity [10]: Active; Activity [11]: Active
5 | C[C@]12C[C@@]34C=C(Sc5cccc(C#CC6(O)CCCCC6)c5)C(=O)[C@@](C)(CCC(=O)Nc5c(O)ccc(C(=O)O)c5O)[C@@H]3[C@H](C[C@@H]1C4)O2 | Active | 0.25 (≈ 0.372 µM) | 0.25 (≈ 0.372 µM) | 0.25 (≈ 0.372 µM) | –
6 | C[C@]12C[C@@]34C=C(Sc5ccc(I)cc5)C(=O)[C@@](C)(CCC(=O)Nc5c(O)ccc(C(=O)O)c5O)[C@@H]3[C@H](C[C@@H]1C4)O2 | Active | 0.5 (≈ 0.74 µM) | 0.25 (≈ 0.37 µM) | 0.25 (≈ 0.37 µM) | –
7 | Cc1ccc(SC2=C[C@]34C[C@H]5C[C@H](O[C@@]5(C)C3)[C@H]4[C@](C)(CCC(=O)Nc3c(O)ccc(C(=O)O)c3O)C2=O)cc1 | Active | 0.5 (≈ 0.887 µM) | 0.25 (≈ 0.444 µM) | 0.25 (≈ 0.444 µM) | inhibition [12]: Active; survival at 10 mg/kg [5]: > 60%; survival at 20 mg/kg [6]: 80%
8 | C[C@]12C[C@@]34C=C(Sc5ccc(F)cc5)C(=O)[C@@](C)(CCC(=O)Nc5c(O)ccc(C(=O)O)c5O)[C@@H]3[C@H](C[C@@H]1C4)O2 | Active | 1 (≈ 1.76 µM) | 0.5 (≈ 0.881 µM) | 0.5 (≈ 0.881 µM) | –
9 | C[C@]12C[C@@]34C=C(Sc5cccc(C#CC6CC6)c5)C(=O)[C@@](C)(CCC(=O)Nc5c(O)ccc(C(=O)O)c5O)[C@@H]3[C@H](C[C@@H]1C4)O2 | Active | – | – | – | –
10 | CC(C)(C)C#Cc1cccc(SC2=C[C@]34C[C@H]5C[C@H](O[C@@]5(C)C3)[C@H]4[C@](C)(CCC(=O)Nc3c(O)ccc(C(=O)O)c3O)C2=O)c1 | Active | – | – | – | –
11 | C[C@]12C[C@@]34C=C(Sc5cccc(-c6cccnc6)c5)C(=O)[C@@](C)(CCC(=O)Nc5c(O)ccc(C(=O)O)c5O)[C@@H]3[C@H](C[C@@H]1C4)O2 | Active | – | – | – | –
12 | C[C@]12C[C@@]34C=C(Sc5ccc(C#CC6CC6)cc5)C(=O)[C@@](C)(CCC(=O)Nc5c(O)ccc(C(=O)O)c5O)[C@@H]3[C@H](C[C@@H]1C4)O2 | Active | – | – | – | –
13 | C[C@]12C[C@@]34C=C(Sc5cccc(-c6ccccc6F)c5)C(=O)[C@@](C)(CCC(=O)Nc5c(O)ccc(C(=O)O)c5O)[C@@H]3[C@H](C[C@@H]1C4)O2 | Active | – | – | – | –
14 | COC(=O)/C=C/c1ccc(SC2=C[C@]34C[C@H]5C[C@H](O[C@@]5(C)C3)[C@H]4[C@](C)(CCC(=O)Nc3c(O)ccc(C(=O)O)c3O)C2=O)cc1 | Active | – | – | – | –
15 | C[C@]12C[C@@]34C=C(Sc5cccc(C#Cc6ccccn6)c5)C(=O)[C@@](C)(CCC(=O)Nc5c(O)ccc(C(=O)O)c5O)[C@@H]3[C@H](C[C@@H]1C4)O2 | Active | 0.5 (≈ 0.768 µM) | 0.5 (≈ 0.768 µM) | 0.5 (≈ 0.768 µM) | –
16 | C[C@]12C[C@]34C[C@H]1C[C@H](O2)[C@H]3[C@](C)(CCC(=O)Nc1c(O)ccc(C(=O)O)c1O)C(=O)[C@@H]1O[C@@H]14 | – | 32 (≈ 69.9 µM) | 16 (≈ 35 µM) | 16 (≈ 35 µM) | –
17 | CCCSC1=C[C@]23C[C@H]4C[C@H](O[C@@]4(C)C2)[C@H]3[C@](C)(CCC(=O)Nc2c(O)ccc(C(=O)O)c2O)C1=O | Active | 1 (≈ 1.94 µM) | 0.5 (≈ 0.97 µM) | 0.5 (≈ 0.97 µM) | –
18 | C[C@]12C[C@@]34C=C(Sc5ccc(/C=C/C(=O)O)cc5)C(=O)[C@@](C)(CCC(=O)Nc5c(O)ccc(C(=O)O)c5O)[C@@H]3[C@H](C[C@@H]1C4)O2 | Active | – | – | – | –
19 | C[C@]12C[C@@]34C=C(Sc5ccc(Cl)cc5)C(=O)[C@@](C)(CCC(=O)Nc5c(O)ccc(C(=O)O)c5O)[C@@H]3[C@H](C[C@@H]1C4)O2 | Active | – | – | – | –
20 | COc1ccc(SC2=C[C@]34C[C@H]5C[C@H](O[C@@]5(C)C3)[C@H]4[C@](C)(CCC(=O)Nc3c(O)ccc(C(=O)O)c3O)C2=O)cc1 | Active | – | – | – | –
21 | C[C@]12C[C@@]34C=C(Sc5cccc6ccccc56)C(=O)[C@@](C)(CCC(=O)Nc5c(O)ccc(C(=O)O)c5O)[C@@H]3[C@H](C[C@@H]1C4)O2 | Active | – | – | – | –
22 | C[C@]12C[C@@]34C=C(Sc5ccccn5)C(=O)[C@@](C)(CCC(=O)Nc5c(O)ccc(C(=O)O)c5O)[C@@H]3[C@H](C[C@@H]1C4)O2 | Active | 2 (≈ 3.63 µM) | 2 (≈ 3.63 µM) | 2 (≈ 3.63 µM) | Survival [5]: inactive
23 | C[C@]12C[C@@]34C=C(Sc5ccc(-c6ccccc6F)cc5)C(=O)[C@@](C)(CCC(=O)Nc5c(O)ccc(C(=O)O)c5O)[C@@H]3[C@H](C[C@@H]1C4)O2 | Active | – | – | – | –
